Values quoted from earlier work, collected in paper PMC11589570, “Critical assessment of LC3/GABARAP ligands used for degrader development and ligandability of LC3/GABARAP binding pockets” (Nature Communications, 2024).

Biological target: LC3
Design: method as in Dong et al.
Conditions: higher protein and compound concentrations; ref Dong et al.; read-out: Kd (ITC); cited from earlier work

Cc1ccc(C(=O)N(CCCN)[C@@H](c2nc3cc(Cl)ccc3c(=O)n2Cc2ccccc2)C(C)C)cc1 [compound 3, (R)-N-(3-aminopropyl)-N-(1-(3-benzyl-7-chloro-4-oxo-3,4-dihydroquinazolin-2-yl)−2-methylpropyl)−4-methylbenzamide]
Kd: ~12 µM
